Structures can show the parent of a compound that is named as a salt. Where only a bound is given, the exact number is not on record here.

As usually defined, the EC50 is the midpoint of the concentration-response curve. A word on the MRT: it is a mean duration of stay, worked out from the concentration-time curve. What is called t½ is how long it takes for the measured level to halve. A high value points to slow decline.

Data set [1] addresses T1, recombinant guanylate cyclase reporter cell line (Rattus norvegicus, UniProt P20595).
T1 construct: expressed in transfected cells; CHO by own knowledge of the cited Wunder et al. 2005
T1 sequence (P20595 1-619): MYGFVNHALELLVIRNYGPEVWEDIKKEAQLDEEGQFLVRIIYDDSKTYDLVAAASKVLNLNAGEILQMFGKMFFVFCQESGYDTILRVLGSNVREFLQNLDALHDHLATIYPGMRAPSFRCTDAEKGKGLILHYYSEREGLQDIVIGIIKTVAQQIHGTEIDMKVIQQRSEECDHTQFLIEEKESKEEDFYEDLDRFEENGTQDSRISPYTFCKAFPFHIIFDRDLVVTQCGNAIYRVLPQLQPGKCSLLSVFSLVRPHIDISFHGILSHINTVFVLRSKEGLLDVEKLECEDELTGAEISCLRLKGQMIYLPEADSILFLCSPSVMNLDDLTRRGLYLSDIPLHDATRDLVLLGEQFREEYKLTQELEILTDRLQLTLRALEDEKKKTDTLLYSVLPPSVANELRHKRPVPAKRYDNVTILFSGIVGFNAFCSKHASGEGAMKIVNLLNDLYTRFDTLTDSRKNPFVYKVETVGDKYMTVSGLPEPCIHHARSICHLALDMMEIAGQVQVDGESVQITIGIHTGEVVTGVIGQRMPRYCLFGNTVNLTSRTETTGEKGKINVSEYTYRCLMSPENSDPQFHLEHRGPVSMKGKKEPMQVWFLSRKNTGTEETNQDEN
T1 sequence (P19686 1-690 partner): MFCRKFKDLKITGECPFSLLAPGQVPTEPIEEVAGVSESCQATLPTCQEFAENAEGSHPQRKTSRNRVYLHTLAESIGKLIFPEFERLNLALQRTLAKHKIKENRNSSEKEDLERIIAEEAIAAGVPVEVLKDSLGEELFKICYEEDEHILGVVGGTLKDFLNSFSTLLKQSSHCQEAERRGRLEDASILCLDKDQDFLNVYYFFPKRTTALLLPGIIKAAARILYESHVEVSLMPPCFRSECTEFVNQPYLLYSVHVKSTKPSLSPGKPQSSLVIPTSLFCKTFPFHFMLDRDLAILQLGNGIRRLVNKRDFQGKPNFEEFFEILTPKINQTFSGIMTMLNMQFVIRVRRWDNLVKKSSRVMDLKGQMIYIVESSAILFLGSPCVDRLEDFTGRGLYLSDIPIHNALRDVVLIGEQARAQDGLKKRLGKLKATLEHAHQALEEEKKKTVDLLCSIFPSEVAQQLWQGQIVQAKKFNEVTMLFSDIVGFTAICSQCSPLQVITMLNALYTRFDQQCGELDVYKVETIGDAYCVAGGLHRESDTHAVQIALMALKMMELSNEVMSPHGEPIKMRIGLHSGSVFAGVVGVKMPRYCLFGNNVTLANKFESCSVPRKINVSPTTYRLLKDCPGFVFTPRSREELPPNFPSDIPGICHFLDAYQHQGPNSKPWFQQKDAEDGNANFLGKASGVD
The experiment in a line: Effect on a recombinant guanylate cyclase reporter cell line. Format: cell-based. On the procedure: B-1. Effect on a Recombinant Guanylate Cyclase Reporter Cell Line
The cellular activity of the compounds according to the invention was determined using a recombinant guanylate cyclase reporter cell line, as described in F. Wunder et al., Anal. Biochem. 339, 104-112 (2005).

The nature of data set [2]: Pharmacokinetic parameters following intravenous and oral administration in rats. It is filed as in vivo, male Wistar rats. The note with it: for clearance: read-out: CLplasma (converted); for half-life: read-out: t½ (converted). On the procedure:
(§1) B-2. Determination of Pharmacokinetic Parameters Following Intravenous and Oral Administration
(§2) The pharmacokinetic parameters of the compounds according to the invention were determined in male Wistar rats and/or in female beagles and/or in cynomolgus monkeys and/or in male CD-1 mice. Intravenous administration in the case of mice and rats was carried out by means of a species-specific plasma/DMSO formulation, and in the case of dogs and monkeys by means of a water/PEG400/ethanol formulation. In all species, oral administration of the dissolved substance was performed via gavage, based on a water/PEG400/ethanol formulation.
(§3) An internal standard (which may also be a chemically unrelated substance) was added to the samples of the compounds of the invention, calibration samples and qualifiers, and there followed protein precipitation by means of acetonitrile in excess. Addition of a buffer solution matched to the LC conditions, and subsequent vortexing, was followed by centrifugation at 1000 g. The supernatant was analysed by LC-MS/MS using C18 reversed-phase columns and variable mobile phase mixtures. The substances were quantified via the peak heights or areas from extracted ion chromatograms of specific selected ion monitoring experiments.
(§4) The plasma concentration/time plots determined were used to calculate the pharmacokinetic parameters such as AUC, Cmax, t1/2 (terminal half-life), F (bioavailability), MRT (mean residence time) and CL (clearance), by means of a validated pharmacokinetic calculation program.
(§5) Since the substance quantification was performed in plasma, it was necessary to determine the blood/plasma distribution of the substance in order to be able to adjust the pharmacokinetic parameters correspondingly.
(§6) For this purpose, a defined amount of substance was incubated in K3 EDTA whole blood of the species in question in a rocking roller mixer for 20 min. After centrifugation at 1000 g, the plasma concentration was measured (by means of LC-MS/MS; see above) and determined by calculating the ratio of the Cblood/Cplasma value.

A short description of data set [3]: Pharmacokinetic parameters following intravenous and oral administration in dogs. Format: in vivo, female beagles. Particulars: for half-life: read-out: t½ (converted). On the procedure: as §1, §2, §3, §4, §5, §6
Setting [4] is: male, Wistar, rat, plasma, iv, intravenous administration.
Where [5] appears, read: male, Wistar, rat, plasma, iv, intravenous administration, read-out: MRT.
Where [6] appears, read: male, Wistar, rat, plasma, po, oral administration (p.o.), read-out: MRT.
[7] abbreviates: male, Wistar, rat, plasma, po, oral administration (p.o.).
[8] abbreviates: female, beagle, dog, plasma, intravenous administration (i.v.).
Setting [9] is: female, beagle, dog, plasma, oral administration (p.o.).

With `CC(C)CN1CCN(c2ccc(-c3ccc(Cl)cc3N3CCCC(n4ncc(C(=O)O)c4C(F)F)C3)cc2)CC1` (single isomer, unassigned) [Example 1, 1-[1-{4-Chloro-4′-[4-(2-methylpropyl)piperazin-1-yl][1,1′-biphenyl]-2-yl}piperidin-3-yl]-5-(difluoromethyl)-1H-pyrazole-4-carboxylic acid hydrochloride], in data set [1], the EC50 worked out at 9.2 nM and the “MEC (minimum effective concentration)” value is recorded as 2.3 nM. Besides, in data set [2] (intravenous administration), the AUCnorm worked out at 1.77 kg·h/L. Also, in data set [2] (setting [4]), the clearance was 9.33 mL/min/kg and the half-life is 1.64 h. In addition, the MRT in data set [2] (setting [5]) is 2.24 h. The MRT in data set [2] (setting [6]) turned out to be 6.28 h. In data set [2] (setting [7]), the half-life is 3.24 h. In addition, in data set [2] (oral administration (p.o.)), the AUCnorm amounted to 0.57 kg·h/L and the F amounted to 31.4%.

For `CCCN1CCN(c2ccc(-c3ccc(Cl)cc3N3CCCC(n4ncc(C(=O)O)c4C(F)F)C3)cc2)CC1` (single isomer, unassigned) [Example 4, 1-{1-[4-Chloro-4′-(4-propylpiperazin-1-yl)[biphenyl]-2-yl]piperidin-3-yl}-5-(difluoromethyl)-1H-pyrazole-4-carboxylic acid hydrochloride], in data set [1], the EC50 was 3.2 nM and the “MEC (minimum effective concentration)” value is 0.3 nM. This compound also gave an AUCnorm in data set [2] (intravenous administration) of 1.40 kg·h/L. In addition, in data set [2] (setting [4]), the clearance was 12 mL/min/kg and the half-life is 2.09 h. Besides, the MRT in data set [2] (setting [5]) stood at 2.62 h. The MRT in data set [2] (setting [6]) was 5.91 h. Besides, the half-life in data set [2] (setting [7]) is 3.02 h. Also, in data set [2] (oral administration (p.o.)), the AUCnorm amounted to 0.84 kg·h/L and the F is reported as 59.9%.

For `O=C(O)c1cnn(C2CCCN(c3cc(Cl)ccc3-c3ccc(N4CCN(CC5CC5)CC4)cc3)C2)c1C(F)F` (single isomer, unassigned) [Example 5, 1-(1-{4-Chloro-4′-[4-(cyclopropylmethyl)piperazin-1-yl][biphenyl]-2-yl}piperidin-3-yl)-5-(difluoromethyl)-1H-pyrazole-4-carboxylic acid hydrochloride], the EC50 in data set [1] turned out to be 3.6 nM. Also, the “MEC (minimum effective concentration)” value in data set [1] is reported as less than 0.3 nM. The AUCnorm in data set [2] (intravenous administration) amounted to 1.23 kg·h/L; in data set [2] (oral administration (p.o.)) it was 0.70 kg·h/L. Also, in data set [2] (setting [4]), the clearance was 13.5 mL/min/kg. For the same compound, the results for the MRT in data set [2] (setting [5]) and in data set [2] (setting [6]) were 2.88 h and 7.53 h, respectively. The figures for the half-life in data set [2] (setting [4]) and in data set [2] (setting [7]) were 2.43 h and 3.76 h, respectively. This compound came in with a F in data set [2] (oral administration (p.o.)) of 58.2%.

In the case of `O=C(O)c1cnn(C2CCCN(c3cc(Cl)ccc3-c3ccc(N4CCN(CC(F)(F)F)CC4)cc3)C2)c1C(F)F` (single isomer, unassigned) [Example 6, 1-[1-[5-Chloro-2-[4-[4-(2,2,2-trifluoroethyl)piperazin-1-yl]phenyl]phenyl]-3-piperidyl]-5-(difluoromethyl)pyrazole-4-carboxylic acid], in data set [1], the EC50 turned out to be 19.3 nM and the “MEC (minimum effective concentration)” value is on record as 1.6 nM. In data set [2] (intravenous administration), this compound returned an AUCnorm of 2.29 kg·h/L, a CLplasma of 7.33 mL/min/kg, an MRT of 4.16 h and a t½ of 5.13 h. In data set [2] (oral administration (p.o.)), the AUCnorm worked out at 2.11 kg·h/L, the F is 91.7%, the MRT is given as 14.2 h and the t½ is on record as 7.37 h.

Turning to `O=C(O)c1cnn(C2CCCN(c3cc(Cl)ccc3-c3ccc(N4CCN(CC(F)(F)F)CC4)cc3)C2)c1C(F)F` (single isomer, unassigned) [Example 7, 1-[1-[5-Chloro-2-[4-[4-(2,2,2-trifluoroethyl)piperazin-1-yl]phenyl]phenyl]-3-piperidyl]-5-(difluoromethyl)pyrazole-4-carboxylic acid], in data set [1], the EC50 came out at 13.7 nM and the “MEC (minimum effective concentration)” value stood at 1.6 nM. In addition, in data set [2] (intravenous administration), the AUCnorm stood at 7.23 kg·h/L and the CLplasma is 2.33 mL/min/kg. In addition, the MRT in data set [2] (setting [5]) came out at 4.41 h. The half-life in data set [2] (setting [4]) is 3.83 h. Moreover, the MRT in data set [2] (setting [6]) amounted to 7.32 h. In data set [2] (oral administration (p.o.)), this compound returned an AUCnorm of 4.04 kg·h/L, an F of 56.1% and a t½ of 3.63 h.

Regarding `CC(C)CN1CCN(c2ccc(-c3ccc(Cl)cc3N3CCCC(n4ncc(C(=O)O)c4C(F)(F)F)C3)cc2)CC1` (single isomer, unassigned) [Example 8, 1-[1-{4-Chloro-4′-[4-(2-methylpropyl)piperazin-1-yl][1,1′-biphenyl]-2-yl}piperidin-3-yl]-5-(trifluoromethyl)-1H-pyrazole-4-carboxylic acid], in data set [1], the EC50 turned out to be 40 nM and the “MEC (minimum effective concentration)” value was 6.5 nM.

In the case of `O=C(O)c1cnn(C2CCCN(c3cc(Cl)ccc3-c3ccc(N4CCN(CC(F)(F)F)CC4)cc3)C2)c1C(F)(F)F` (single isomer, unassigned) [Example 11, 1-[1-[5-Chloro-2-[4-[4-(2,2,2-trifluoroethyl)piperazin-1-yl]phenyl]phenyl]-3-piperidyl]-5-(trifluoromethyl)pyrazole-4-carboxylic acid], in data set [1], the EC50 was found to be 5.2 nM and the “MEC (minimum effective concentration)” value was 0.6 nM.

As for `O=C(O)c1cnn(-c2cccc(-c3cc(Cl)ccc3-c3ccc(N4CCN(CC5CC5)CC4)cc3)n2)c1C(F)(F)F` [Comparative Example 174 (WO2012/058132), reference compound], the MRT in data set [3] (setting [8]) came to 7.23 h; in data set [3] (setting [9]), 6.1 h; in data set [2] (setting [5]) it was 2.78 h; in data set [2] (setting [6]), 8.4 h. In addition, the clearance in data set [3] (female, beagle, dog, plasma, intravenous administration (i.v.), read-out: CLplasma (converted)) is 3.33 mL/min/kg; in data set [2] (setting [4]), 21.7 mL/min/kg. The half-life in data set [3] (setting [8]) was 10.8 h; in data set [3] (setting [9]) it was 7.05 h; in data set [2] (setting [4]), 2.33 h; in data set [2] (setting [7]) it was 3.6 h. Besides, the AUCnorm came to 5.00 kg·h/L in data set [3] (intravenous administration (i.v.)), 2.08 kg·h/L in data set [3] (oral administration (p.o.)), 0.77 kg·h/L in data set [2] (intravenous administration) and 0.63 kg·h/L in data set [2] (oral administration (p.o.)). Moreover, the F in data set [3] (oral administration (p.o.)) stood at 41.6%; in data set [2] (oral administration (p.o.)), 81.8%.

For the origin of these results see patent US20230346777A1, “USE OF SGC ACTIVATORS FOR THE TREATMENT OF OPHTHALMOLOGIC DISEASES” (Bayer Aktiengesellschaft, priority 2020, published 2023).
